Measurements as given in US20110039770A1, “INHIBITORS OF PROTEIN KINASE C ISOFORMS AND USES THEREOF” (PHARMAGAP INC., priority 2005, published 2011).
Where a SMILES comes first, the peptide text is derived from it.

Molecular target: T1, PKC-β (Homo sapiens, UniProt P05771)
T1 construct: PRE 2 and PRE 3 in IMR-32 Neuroblastoma Cells: Protocol A; endogenous in cells; host or cells: IMR-32 human neuroblastoma cells
Experiment: Competition of PRE with PKC-β antibody binding, Protocol B, IMR-32
Experimental: The ability of the peptides PRE 2 and PRE 3 (see Table 4) to interfere with the binding of a PKC-α-specific polyclonal antibody (Santa Cruz Biotechnology, Inc.) to PKC-α was determined using a modified version of the protocol outlined above in which the test peptide was added directly to the cell extract prior to electrophoresis at a concentration of either 5× or 15× the concentration of the protein applied to each well of the gel for the Western blots (20 μg).
Peptides PRE 2 and PRE 3 (see Table 4) were tested for their ability to interfere with the binding of a PKC-β-specific polyclonal antibody (Santa Cruz Biotechnology, Inc.) to PKC-β using the general protocol described in Example 3.

T1 sequence (P05771 whole entry): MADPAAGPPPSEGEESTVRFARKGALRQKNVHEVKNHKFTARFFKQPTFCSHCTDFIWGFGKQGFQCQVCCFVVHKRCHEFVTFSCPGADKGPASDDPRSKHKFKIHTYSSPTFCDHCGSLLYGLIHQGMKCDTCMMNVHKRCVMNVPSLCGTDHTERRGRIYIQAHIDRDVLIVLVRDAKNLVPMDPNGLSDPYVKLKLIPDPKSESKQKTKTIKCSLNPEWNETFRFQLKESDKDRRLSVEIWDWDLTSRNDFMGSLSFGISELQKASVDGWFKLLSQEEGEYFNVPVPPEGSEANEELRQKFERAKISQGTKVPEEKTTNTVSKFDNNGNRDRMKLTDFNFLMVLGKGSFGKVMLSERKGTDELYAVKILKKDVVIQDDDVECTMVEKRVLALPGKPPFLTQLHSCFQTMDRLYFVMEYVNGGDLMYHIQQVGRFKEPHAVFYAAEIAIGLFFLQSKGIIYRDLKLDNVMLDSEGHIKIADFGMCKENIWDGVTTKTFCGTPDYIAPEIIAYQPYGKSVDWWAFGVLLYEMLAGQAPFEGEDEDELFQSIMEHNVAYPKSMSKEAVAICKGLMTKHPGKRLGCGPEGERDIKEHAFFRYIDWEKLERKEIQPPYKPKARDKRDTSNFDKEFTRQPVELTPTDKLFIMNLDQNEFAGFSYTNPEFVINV

Band Intensity (100 μg): 0.0
Relative Intensity (%) (100 μg): 0.0%
Band Intensity (200 μg): 0.0
Band Intensity (300 μg): 0.0
Relative Intensity (%) (300 μg): 0.0%
SMILES: CC[C@H](C)[C@H](NC(=O)[C@H](CO)NC(=O)[C@@H](NC(=O)CNC(=O)[C@@H](NC(=O)[C@H](CC(C)C)NC(=O)[C@H](CC(N)=O)NC(=O)[C@H](CCC(N)=O)NC(=O)[C@H](C)NC(=O)[C@H](CC(=O)O)NC(=O)CNC(=O)CNC(=O)[C@H](CCCCN)NC(=O)[C@@H](NC(=O)[C@H](CCC(=O)O)NC(=O)[C@H](CCC(N)=O)NC(=O)[C@@H](NC(=O)CNC(=O)[C@H](CCCCN)NC(=O)[C@H](C)NC(C)=O)[C@@H](C)CC)C(C)C)[C@@H](C)CC)[C@@H](C)CC)C(N)=O [PRE 3] (Ac-AKGIQEVKGGDAQNLIGISI-NH2)
